Tests used:
human Aurora-C = biological target: T1, human Aurora-C (Homo sapiens, UniProt Q9UQB9); test: Aurora-C kinase assay (HTRF); assay type: biochemical; settings: GST-human Aurora-C, 10 μM ATP
T1 construct: GST; made in house; host or cells: transiently transfected HEK293 cells
T1 sequence (Q9UQB9 1-309): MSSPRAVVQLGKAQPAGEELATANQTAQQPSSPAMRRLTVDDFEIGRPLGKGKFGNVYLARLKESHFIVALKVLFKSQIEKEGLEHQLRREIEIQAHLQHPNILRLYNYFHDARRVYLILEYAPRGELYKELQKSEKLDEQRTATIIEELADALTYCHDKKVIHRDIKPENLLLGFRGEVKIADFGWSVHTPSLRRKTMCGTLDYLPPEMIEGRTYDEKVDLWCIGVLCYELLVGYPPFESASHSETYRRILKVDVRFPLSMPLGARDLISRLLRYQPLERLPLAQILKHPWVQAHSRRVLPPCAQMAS
Method: The Aurora-C inhibitory activity of the substances of this invention was measured in the Aurora-C-HTRF assay (HTRF=Homogeneous Time Resolved Fluorescence) described in the following paragraphs.
Recombinant fusion protein of GST and human Aurora-C was expressed in transiently transfected HEK293 cells and purified by affinity chromatography on glutathione-Sepharose. The substrate used for the kinase reaction was the biotinylated peptide biotin-Ttds-FMRLRRLSTKYRT (C terminus in amide form) which can be purchased for example from JERINI Peptide Technologies (Berlin). Aurora-C was incubated in the presence of various concentrations of test substances in 5 μL of assay buffer [25 mM Hepes/NaOH pH 7.4, 0.5 mM MnCl2, 2.0 mM dithiothreitol, 0.1 mM sodium orthovanadate, 10 μM adenosine triphosphate (ATP), […] substrate, 0.01% (v/v) TritonX-100 (Sigma), 0.05% (w/v) bovine serum albumin (BSA), 1% (v/v) dimethyl sulphoxide] at 22° C. for 60 min. The concentration of Aurora-C was adapted to the particular activity of the enzyme and adjusted so that the assay operated in the linear range. Typical concentrations were in the region of 0.3 nM. The reaction was stopped by adding 5 μl of a solution of HTRF detection reagents (0.2 μM streptavidin-XLent and 1.4 nM anti-phospho-(Ser/Thr)-Akt substrate-Eu-cryptate (C is biointernational, France, product No. 61P02KAE), a Europium-cryptate-labelled phospho-(Ser/Thr)-Akt substrate antibody [product #9611B, Cell Signaling Technology, Danvers, Mass., USA]) in aqueous EDTA solution (40 mM EDTA, 400 mM KF, 0.05% (w/v) bovine serum albumin (BSA) in 25 mM HEPES/NaOH pH 7.0).
(§1) The resulting mixture was incubated at 22° C. for 1 h in order to allow formation of a complex of the biotinylated phosphorylated substrate and the detection reagents. The amount of phosphorylated substrate was then estimated by measuring the resonance energy transfer from the anti-phospho-(Ser/Thr)-Akt substrate-Eu cryptate to the streptavidin-XLent. For this purpose, the fluorescence emissions at 620 nm and 665 nm after excitation at 350 nm were measured in an HTRF measuring instrument, e.g. a Rubystar (BMG Labtechnologies, Offenburg, Germany) or a Viewlux (Perkin-Elmer). The ratio of the emissions at 665 nm and at 622 nm was taken as a measure of the amount of phosphorylated substrate. The data were normalized (enzymic reaction without inhibitor=0% inhibition, all other assay components but no enzyme=100% inhibition) and IC50 values were calculated with a 4-parameter fit using an inhouse software.

CDK2/CycE = biological target: T2, CDK2/CycE (Homo sapiens, UniProt P24941); test: CDK2/CycE kinase assay (HTRF); assay type: biochemical; settings: 10 μM ATP
T2 construct: GST; purchased ProQinase GmbH, Freiburg; host or cells: baculovirus-infected insect cells (Sf9)
Method: The CDK2/CycE inhibitory activity of the substances of this invention was measured in the CDK2/CycE-HTRF assay (HTRF=Homogeneous Time Resolved Fluorescence) described in the following paragraphs.
Recombinant CDK2-GST and CycE-GST fusion proteins purified from baculovirus-infected insect cells (Sf9) were purchased from ProQinase GmbH, Freiburg. The substrate used for the kinase reaction was the biotinylated peptide biotin-Ttds-YISPLKSPYKISEG (C terminus in amide form) which can be purchased for example from JERINI Peptide Technologies (Berlin).
CDK2/CycE was incubated in the presence of various concentrations of test substances in 5 μL of assay buffer [50 mM Tris/HCl pH 8.0, 10 mM MgCl2, 1.0 mM dithiothreitol, 0.1 mM sodium orthovanadate, 10 μM adenosine triphosphate (ATP), 0.75 μM substrate, 0.01% (v/v) Nonidet-P40 (Sigma), 1% (v/v) dimethyl sulphoxide] at 22° C. for 60 min. The concentration of CDK2/CycE was adapted to the particular activity of the enzyme and adjusted so that the assay operated in the linear range. Typical concentrations were in the region of 1 ng/ml. The reaction was stopped by adding 5 μl of a solution of HTRF detection reagents (0.2 μM streptavidin-XLent and 3.4 nM phospho-(Ser) CDKs substrate antibody [product #2324B, Cell Signaling Technology, Danvers, Mass., USA] and 4 nM Prot-A-EuK [protein A labelled with Europium cryptate from C is biointernational, France, product No. 61 PRAKLB]) in aqueous EDTA solution (100 mM EDTA, 800 mM KF, 0.2% (w/v) bovine serum albumin (BSA) in 100 mM HEPES/NaOH pH 7.0).
as §1, with “Prot-A-EuK” for “anti-phospho-(Ser/Thr)-Akt substrate-Eu cryptate”

C[C@@H](O)[C@@H](C)Oc1nc(Nc2ccc(Nc3nccc(OCCO)n3)cc2)ncc1Br [Example 8, (2R,3R)-3-(5-Bromo-2-{4-[4-(2-hydroxyethoxy)pyrimidin-2-ylamino]-phenylamino}pyrimidin-4-yloxy)butan-2-ol]
IC50 (human Aurora-C): 200 nM | IC50 (CDK2/CycE): 2.8 nM

C[C@@H](O)[C@@H](C)Oc1nc(Nc2ccc(Nc3ncccn3)cc2)ncc1Br [Example 15]
IC50 (human Aurora-C): 140 nM | IC50 (CDK2/CycE): 2.9 nM

C[C@@H](O)[C@@H](C)Oc1nc(Nc2ccc(Nc3nccc(N)n3)cc2)ncc1Br [Example 16]
IC50 (human Aurora-C): 42 nM | IC50 (CDK2/CycE): 2 nM

C[C@@H](O)[C@@H](C)Oc1nc(Nc2ccc(Nc3nccc(N(C)C)n3)cc2)ncc1Br [Example 17]
IC50 (human Aurora-C): 100 nM | IC50 (CDK2/CycE): 4.4 nM

C[C@@H](O)[C@@H](C)Oc1nc(Nc2ccc(Nc3nccc(NCCN(C)C)n3)cc2)ncc1Br [Example 18]
IC50 (human Aurora-C): 75 nM | IC50 (CDK2/CycE): 5.9 nM

Cc1cnc(Nc2ccc(Nc3ncc(Br)c(O[C@H](C)[C@@H](C)O)n3)cc2)nc1NCCO [Example 19]
IC50 (human Aurora-C): 91 nM | IC50 (CDK2/CycE): 2.2 nM

C[C@@H](O)[C@@H](C)Oc1nc(Nc2ccc(Nc3ncc(Cl)c(NCCO)n3)cc2)ncc1Br [Example 21]
IC50 (human Aurora-C): 180 nM | IC50 (CDK2/CycE): 2.2 nM

COc1ccnc(Nc2ccc(Nc3ncc(Br)c(O[C@H](C)[C@@H](C)O)n3)cc2)n1 [Example 22]
IC50 (human Aurora-C): 270 nM | IC50 (CDK2/CycE): 4.8 nM

C[C@@H](O)[C@@H](C)Oc1nc(Nc2ccc(Nc3ncc(Br)cn3)cc2)ncc1Br [Example 24]
IC50 (human Aurora-C): 130 nM | IC50 (CDK2/CycE): 6.2 nM

C[C@@H](O)[C@@H](C)Oc1nc(Nc2cccc(Nc3ncccn3)c2)ncc1Br [Example 25]
IC50 (human Aurora-C): 340 nM | IC50 (CDK2/CycE): 2 nM

C[C@@H](O)[C@@H](C)Oc1nc(Nc2cccc(Nc3nccc(OCCO)n3)c2)ncc1Br [Example 27]
IC50 (human Aurora-C): 440 nM | IC50 (CDK2/CycE): 2.4 nM

CSc1nc(Nc2ccc(Nc3ccccn3)cc2)ncc1Br [Example 29]
IC50 (human Aurora-C): 8100 nM | IC50 (CDK2/CycE): 260 nM

CC(=O)NCCNc1nc(Nc2cccc(Nc3ncc(Br)c(NCCNC(C)=O)n3)c2)ncc1Br [Example 30]
IC50 (human Aurora-C): 53 nM | IC50 (CDK2/CycE): 5800 nM

C[C@@H](O)[C@@H](C)Nc1nc(Nc2ccc(Oc3cccnc3)cc2)ncc1Br [Example 33]
IC50 (human Aurora-C): 380 nM | IC50 (CDK2/CycE): 6.6 nM

C[C@@H](O)[C@@H](C)Nc1nc(Nc2ccc(Oc3ncccn3)cc2)ncc1Br [Example 34]
IC50 (human Aurora-C): 490 nM | IC50 (CDK2/CycE): 9.1 nM

C[C@@H](O)[C@@H](C)Nc1nc(Nc2ccc(Sc3nncn3C)cc2)ncc1Br [Example 39]
IC50 (human Aurora-C): 350 nM | IC50 (CDK2/CycE): 1.3 nM

C[C@@H](O)[C@@H](C)Sc1nc(Nc2ccc(Nc3ncc(Cl)c(NCCO)n3)cc2)ncc1Br [Example 44]
IC50 (human Aurora-C): 1000 nM | IC50 (CDK2/CycE): 370 nM

— US20080176866A1, “NOVEL HETARYL-PHENYLENEDIAMINE-PYRIMIDINES AS PROTEIN KINASE INHIBITORS” (priority 2006, published 2008)
